Data: patent US20250134790A1, “ANTIMICROBIAL COMPOSITIONS” (Firmenich SA, priority 2021, published 2025)
Where two headings read alike, the source gives them in different places.

Test system: Escherichia coli ATCC 10536
Assay: Robotic bacteria contact time (BCT) test of perfume ingredients in surfactant bases (EN-1276 based)
Assay type: cell-based
Details: contact time 45 seconds; for log reduction at 1 % / log reduction at 0.5 %: Escherichia coli, ATCC10536, 45 s; for log reduction at 1 % / Log reduction: surfactant base B, perfume ingredient 1% wt; for log reduction at 0.5 %: surfactant base A, perfume ingredient 0.5 % wt
Procedure: a. Preparation of Test Samples
Test samples were prepared by mixing perfume ingredients with the surfactant bases and vigorously stirred for 24 hrs. Samples with transparent appearance were selected for antimicrobial testing.
b. Measurement of Antimicrobial Efficacy of Fragrance Materials in Surfactant Systems
Preparation of screening plate and dilution plate: Aliquots (270 μl) of compositions were dispensed into the wells of a 96-well microtiter plate (MTP) along two columns (B1-H1, and B7-H7), and 270 μl of MilliQ water was added to well A1 and A7 as the control samples. This MTP was labelled as the “Screening plate”. In another MTP, labelled as the “Dilution plate”, 270 μL of Dey-Engley (D/E) neutralizing solution was added to column 1 and column 7. 270 μl of tryptone diluent solution was added to columns 2-6 and columns 8-12 of the Dilution MTP by a Hamilton robotic liquid handling station.
BCT test & neutralization & dilution: Bacterial stock (30 μl) was then added to columns 1 of the ‘Screening plate’ and mixed by a Hamilton robotic liquid handling station. After a contact time of 45 seconds, 30 μl of the mixtures in column 1 were transferred into the corresponding wells of column 1 of the ‘Dilution plate’. After neutralizing for 5 minutes in the D/E neutralizing solution, 30 μl of the neutralized mixtures were transferred from column 1 to column 2 of the Dilution MTP and mixed, followed by transferring 30μl of the mixtures from column 2 into column 3. This process was repeated serially diluting the bacteria suspensions across the plate to column 6. Bacterial stock (30 μl) was then added to columns 7 of the ‘Screening plate’ and mixed by a Hamilton robotic liquid handling station. After a contact time of 45 seconds, 30 μl of the mixtures in column 7 were transferred into the corresponding wells of column 7 of the ‘Dilution plate’. After neutralizing for 5 minutes in the D/E neutralizing solution, 30 μl of the mixtures were transferred from column 7 to column 8 of the Dilution MTP and mixed, followed by transferring further 30μl mixtures from column 8 into column 9. This process was repeated serially diluting the bacteria suspensions across the plate to column 12.
Plating: 30 μl volumes from each well in the Dilution MTP were transferred onto four Tryptone Soya Agar (TSA) plates. The TSA plates were allowed to stand for about two hours so that the 30 μl inocula spots could dry and the plates were then inverted and incubated overnight at 37° C. for 24 hours. After incubation, colonies were counted.
Calculating log reduction: Select the dilutions with colony counts, and calculate the viable cell counts (CFU/mL) of mixture in ‘Screening plate’, and log reduction against the control MilliQ sample was calculated.

[1] = no SCS (/), read-out: Log reduction
[2] = sodium cumene sulfonate (SCS) 3.00 % wt, read-out: Log reduction
[3] = sodium salicylate 3.00, read-out: Log reduction
[4] = sodium cumene sulfonate (SCS) 3.00 % wt

| Compound | log reduction at 1 % [1] | log reduction at 1 % [2] | log reduction at 1 % [3] | Log reduction (sodium salicylate 3.00) | Log reduction (no SCS (/)) | Log reduction [4] | also measured |
| --- | --- | --- | --- | --- | --- | --- | --- |
| CC(=O)OCCC1CCCCC1 [2-cyclohexylethyl acetate] | 0 | > 5 | > 5 |  |  |  |  |
| CC(=CC=O)CCC(C)=C(C)C [3,6,7-trimethyl-2,6-octadienal] | 3.3 | > 5 |  | Insoluble |  |  |  |
| C=CC(C)(O)CCCC(C)C (centres unmarked) [3,7-dimethyl-1-octen-3-ol] | -0.1 | > 5 | > 5 |  |  |  |  |
| CC(C)=CCCC(C)CCO (centres unmarked) [3,7-dimethyl-6-octen-1-ol] |  |  |  | Insoluble | Insoluble | Insoluble | log reduction at 0.5 % (read-out: Log reduction): 2.8 |
| CC(C)=CCCC(C)CC#N (centres unmarked) [3,7-dimethyl-6-octenenitrile] | 0.1 | > 5 | > 5 |  |  |  |  |
| CCCC=C1OC(=O)c2ccccc21 [3-butylidene-1-benzo[C] furanone] |  |  |  | Insoluble |  |  | log reduction at 1 % (no SCS (/)): 0.2; log reduction at 1 % [4]: > 5 |
| CCCCCCCC1CCC(=O)O1 (centres unmarked) [5-heptyldihydro-2(3H)-furanone] |  |  |  |  |  |  | log reduction at 0.5 %: 1.3; log reduction at 1 % (no SCS (/)): -0.2; log reduction at 1 % [4]: 4.9; log reduction at 1 % (sodium salicylate 3.00): > 5 |
| C/C=C\C(C)(O)CCC=C(C)C (centres unmarked) [(2Z)-4,8-dimethyl-2,7-nonadien-4-ol] | -0.1 | > 5 | > 5 |  |  |  |  |
| CCCCCCCC=O [Octanal, octanal] |  |  |  | Insoluble | Insoluble | Insoluble |  |
| cyclopropylmethyl (3Z)-3-hexenoate OR cyclopropylmethyl (3E)-3-hexenoate |  |  |  | >5 | 0.1 | >5 |  |
